According to patent US7906491B2 (Univisitair Medisch Centrum Utrecht, priority 2002, dated 2011):

Experiments:
Epac = biological target: T1, Epac (Homo sapiens, UniProt O95398); assay: Relative affinity for Epac (cAMP = 1), in vitro; format: binding; conditions: relative to cAMP = 1
T1 sequence (O95398 1-923): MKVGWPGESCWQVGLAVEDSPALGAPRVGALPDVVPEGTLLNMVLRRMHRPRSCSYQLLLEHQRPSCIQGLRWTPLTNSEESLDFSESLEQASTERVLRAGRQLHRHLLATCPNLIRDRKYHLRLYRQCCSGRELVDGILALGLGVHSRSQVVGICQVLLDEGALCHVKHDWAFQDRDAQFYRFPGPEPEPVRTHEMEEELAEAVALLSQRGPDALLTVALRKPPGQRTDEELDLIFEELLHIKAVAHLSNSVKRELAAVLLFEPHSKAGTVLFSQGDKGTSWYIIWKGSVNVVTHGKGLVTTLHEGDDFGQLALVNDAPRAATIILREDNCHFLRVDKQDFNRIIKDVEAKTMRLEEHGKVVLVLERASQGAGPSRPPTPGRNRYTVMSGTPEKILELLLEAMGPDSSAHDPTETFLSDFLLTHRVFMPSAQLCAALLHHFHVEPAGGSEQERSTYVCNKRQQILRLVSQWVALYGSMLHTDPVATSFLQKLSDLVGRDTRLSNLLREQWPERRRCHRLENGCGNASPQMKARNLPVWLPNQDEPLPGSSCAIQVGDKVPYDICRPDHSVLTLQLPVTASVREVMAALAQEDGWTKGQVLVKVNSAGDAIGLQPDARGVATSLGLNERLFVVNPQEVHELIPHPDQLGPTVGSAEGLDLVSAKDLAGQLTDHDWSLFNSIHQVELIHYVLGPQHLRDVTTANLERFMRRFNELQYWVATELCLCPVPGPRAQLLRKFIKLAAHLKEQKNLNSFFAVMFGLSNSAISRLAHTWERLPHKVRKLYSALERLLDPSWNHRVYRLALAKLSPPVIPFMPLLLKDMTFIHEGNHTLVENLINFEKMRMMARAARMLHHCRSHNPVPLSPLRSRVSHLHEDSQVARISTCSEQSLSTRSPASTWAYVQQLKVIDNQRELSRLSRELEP

PKAI = assay: Relative affinity for PKAI (cAMP = 1), in vitro; format: binding; conditions: relative to cAMP = 1
Epac1-ΔDEP1 = biological target: T2, Epac1-ΔDEP1 (Homo sapiens, UniProt O95398); assay: In vitro GEF assay: Epac activity in the exchange reaction towards Rap (mantGDP-loaded Rap1b); format: biochemical; conditions: in vitro in the exchange reaction towards Rap; further: key: +++: activity comparible to I-007; ++: activity between I-007 and cAMP; +: activity comparible to cAMP; ±: activity less than cAMP
T2 sequence (O95398 191-923 limits assumed): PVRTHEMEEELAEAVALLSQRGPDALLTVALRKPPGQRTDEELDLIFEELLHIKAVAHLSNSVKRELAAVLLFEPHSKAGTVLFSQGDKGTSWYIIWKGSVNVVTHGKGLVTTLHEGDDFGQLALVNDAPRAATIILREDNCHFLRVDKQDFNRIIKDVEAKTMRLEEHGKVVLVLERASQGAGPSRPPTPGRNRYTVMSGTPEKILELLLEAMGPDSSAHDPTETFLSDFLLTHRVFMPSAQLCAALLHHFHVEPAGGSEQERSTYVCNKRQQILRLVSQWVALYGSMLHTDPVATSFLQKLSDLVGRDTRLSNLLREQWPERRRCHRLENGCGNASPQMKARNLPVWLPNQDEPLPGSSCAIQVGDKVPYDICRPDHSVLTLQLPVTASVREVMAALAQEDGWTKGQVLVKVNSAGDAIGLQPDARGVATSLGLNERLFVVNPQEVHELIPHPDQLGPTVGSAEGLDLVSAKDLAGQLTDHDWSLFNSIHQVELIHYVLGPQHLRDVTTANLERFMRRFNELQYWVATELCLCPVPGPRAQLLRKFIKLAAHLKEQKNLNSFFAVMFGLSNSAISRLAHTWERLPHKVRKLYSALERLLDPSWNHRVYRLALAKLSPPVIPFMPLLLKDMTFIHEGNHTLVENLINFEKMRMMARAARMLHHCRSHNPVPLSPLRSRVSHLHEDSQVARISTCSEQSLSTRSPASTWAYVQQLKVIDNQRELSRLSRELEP
Procedure: In vitro GEF assays were performed as described (3,16). […] Buffer conditions were 50 mM Tris pH7.4, 150 mM NaCl, 5% glycerol, 5 mM DTE, 60 μM GTP. Reactions were carried out in 96-well plates and measured in a Cary Eclipse from Varian Inc., using the manufacturers software.

PKAII = assay: Relative affinity for PKAII (cAMP = 1), in vitro; format: binding; conditions: relative to cAMP = 1
CREB = CREB phosphorylation (read-out for PKA) in NIH3T3-A14-Epac1 cells; format: cell-based; conditions: 15 min, 8-Br-cAMP 1 mM
Procedure: (§1) Upper panel: NIH3T3-A14-Epac1 cells were treated for 15 min with 8-Br-cAMP, and cell lysates were analyzed for activation of Rap1 and phosphorylation of CREB. Lower panel: NIH3T3-A14-Epac1 cells were treated in duplicate for 15 min with increasing concentrations of 8-pCPT-2′-O-Me-cAMP. Cells were lysed and equal amounts of cell lysate were incubated with precoupled GST-RalGDSRBD and Rap1 was assayed by immunoblotting with Rap1 antibody.
(§2) Therefore, 8-CPT-2′-O-Me-cAMP was tested in NIH3T3-A14-Epac1 cells for the activation of Epac, using Rap1 as a read-out, and of PKA, using phosphorylation of the common PKA substrate CREB 29 as a read-out.
Antibodies against phosphorylated CREB (directed against phosphorylated Serl33) were obtained from Cell Signalling (Beverly, Mass., USA), and antibodies against K-Rev/Rap1 and polyclonal anti-HA were obtained from Santa Cruz Biotechnology (Santa Cruz, Calif., USA). The following inhibitors and stimuli were used at concentrations indicated, unless stated otherwise: RGD peptide (100 μM) and H-89 (10 μM) was obtained from Biomol Research Laboratories Inc. (Plymouth Meeting, Pa., USA). 8-Br-cAMP (1 mM) was obtained from BIOLOG Life Science Institute (Bremen, Germany). TPA (12-O-tetradecanoylphorbol-13-acetate) was obtained from Sigma (Steinheim, Germany) and was used at a concentration of 100 ng/ml. […]

Rap1 [1] = assay: Rap1 activation assay (read-out for Epac) in NIH3T3-A14-Epac1 cells; format: cell-based; conditions: 15 min, 8-Br-cAMP 1 mM
Procedure: as §1, §2
NIH3T3-A14 cells, stably expressing Epac1, were grown in DMEM with 10% fetal calf serum and 2 μg/ml puromycin. NIH-OVCAR3 (Ovcar3) cells were maintained in RPMI with 10% fetal calf serum. Transient transfection of Ovcar3 cells was performed using the FuGENE 6 transfection reagent (Roche Diagnostics, Mannheim, Germany) according to the manufacturer's procedures, using 6 μg total DNA including a CMV-luciferase plasmid (0.2 μg).
Rap activation assays were performed as described previously (16-18). Briefly, cells were lysed in lysis buffer containing 10% glycerol, 1% Nonidet P-40, 50 mM Tris-Cl pH7.5, 200 mM NaCl, 2mM MgCl2, 1 μM leupeptin, 0.1 μM aprotinin, 5 mM NaF, 1 mM NaVO3. Lysates were clarified by centrifugation and incubated with GST-tagged RalGDS-RBD pre-coupled to glutathione beads to specifically pull down the GTP-bound forms of Rap1. Samples were incubated for 1 hr at 4° C. while tumbling. Beads were washed four times in lysis buffer, and the remaining fluid was removed with an insulin syringe. Proteins were eluted with Laemmli sample buffer and analyzed by sodium dodecyl sulphate (SDS)-polyacrylamide gel electrophoresis and Western blotting using Rap1 antibodies. As a control, Rap1 levels in whole cell lysates were determined.

Ovcar3 cells = assay: Adhesion assay of Ovcar3 cells to fibronectin; format: cell-based; conditions: H-89 10 μM, 8-pCPT-2′-O-Me-cAMP 100 μM, FIG. 7C
Procedure: A: 8-pCPT-2′-O-Me-cAMP stimulates cell adhesion. Upper panel: quantification of Ovcar3 cells adhering to fibronectin after treatment with increasing concentrations of 8-pCPT-2′-O-Me-cAMP. Lower panel: Ovcar3 cells were treated with increasing concentrations of 8-pCPT-2′-O-Me-cAMP for 15 min, cells were lysed and analyzed for activation of Rap1 (upper blot) and CREB (lower blot). Total Rap1 levels are shown (middle blot). B: 8-pCPT-2′-O-Me-cAMP increases the rate of cell adhesion. Upper panel: quantification of Ovcar3 cells adhering to fibronectin at various time points. Lower panel: cells were treated with 60 μM 8-pCPT-2′-O-Me-cAMP for the indicated times. Cell lysates were analyzed for activation of Rap1 (upper blot) and CREB (lower blot). Total levels of Rap1 in cell lysates are shown (middle blot). C: Ovcar3 cells were either pre-incubated at 37° C. for 30 min with the PKA inhibitor H-89 (10 μM) 30 min prior to seeding onto the wells (‘Short’) or H-89 was added 30 min prior to trypsinization and during the recovery period (‘Long’) and seeded onto wells in the absence or presence of 8-pCPT-2′-O-Me-cAMP (100 μM). Cells were allowed to adhere for 1 h. D, cAMP-induced adhesion to fibronectin is blocked by inhibitors of Rap1. Left panel: Ovcar3 cells were transiently transfected with either mock DNA, increasing concentrations of HA-Rap1GAP II (0.5, 1, 2 or 6 μg, respectively), HA-Rap1GAPI (6 μg) or HA-RBD of RalGDS (6 μg), respectively. Cells were treated with 8-Br-cAMP or 8-pCPT-2′-O-Me-cAMP and adhesion to fibronectin was determined. […]
In functional assays, 8-pCPT-2′-O-Me-cAMP appeared to induce integrin-mediated cell adhesion through Epac and Rap1. […] The cells were seeded onto fibronectin-coated plates in the presence or absence of 8-pCPT-2′-O-Me-cAMP and the amount of cells that adhered after a certain period of time was quantified. […]
24-well plates were coated overnight with 2 μg/ml fibronectin (Sigma, St. Louis, Mo., USA) in sodium bicarbonate buffer (Sigma, St. Louis, Mo., USA). […] Cells were centrifuged, counted and resuspended at 3×10^5 cells/ml in serum-free RPMI with 0.5% BSA. […]

Rap1 [2] = assay: Rap1 activation assay in Ovcar3 cells; format: cell-based; conditions: H-89 10 μM, FIG. 7C
Procedure: A: 8-pCPT-2′-O-Me-cAMP stimulates cell adhesion. Upper panel: quantification of Ovcar3 cells adhering to fibronectin after treatment with increasing concentrations of 8-pCPT-2′-O-Me-cAMP. Lower panel: Ovcar3 cells were treated with increasing concentrations of 8-pCPT-2′-O-Me-cAMP for 15 min, cells were lysed and analyzed for activation of Rap1 (upper blot) and CREB (lower blot). Total Rap1 levels are shown (middle blot). B: 8-pCPT-2′-O-Me-cAMP increases the rate of cell adhesion. Upper panel: quantification of Ovcar3 cells adhering to fibronectin at various time points. Lower panel: cells were treated with 60 μM 8-pCPT-2′-O-Me-cAMP for the indicated times. Cell lysates were analyzed for activation of Rap1 (upper blot) and CREB (lower blot). Total levels of Rap1 in cell lysates are shown (middle blot). C: Ovcar3 cells were either pre-incubated at 37° C. for 30 min with the PKA inhibitor H-89 (10 μM) 30 min prior to seeding onto the wells (‘Short’) or H-89 was added 30 min prior to trypsinization and during the recovery period (‘Long’) and seeded onto wells in the absence or presence of 8-pCPT-2′-O-Me-cAMP (100 μM). Cells were allowed to adhere for 1 h. D, cAMP-induced adhesion to fibronectin is blocked by inhibitors of Rap1. Left panel: Ovcar3 cells were transiently transfected with either mock DNA, increasing concentrations of HA-Rap1GAP II (0.5, 1, 2 or 6 μg, respectively), HA-Rap1GAPI (6 μg) or HA-RBD of RalGDS (6 μg), respectively. Cells were treated with 8-Br-cAMP or 8-pCPT-2′-O-Me-cAMP and adhesion to fibronectin was determined. Right upper panel: luciferase counts of total input cells per well in the above experiment are shown. Right lower panel: expression of HA-Rap1GAPs in the above experiment is shown.
Rap activation assays were performed as described previously (16-18). […] Proteins were eluted with Laemmli sample buffer and analyzed by sodium dodecyl sulphate (SDS)-polyacrylamide gel electrophoresis and Western blotting using Rap1 antibodies. As a control, Rap1 levels in whole cell lysates were determined.

Compound | Relative affinity CAMP = 1 Epac (Epac) | Relative affinity CAMP = 1 PKAI (PKAI) | Relative activity of Epac* (Epac1-ΔDEP1) | Relative affinity CAMP = 1 PKAII (PKAII) | phosphorylation of CREB (CREB) | activation of Rap1 (Rap1 [1]) | effect on 8-pCPT-2′-O-Me-cAMP induction of adhesion (Ovcar3 cells) | effect on 8-pCPT-2′-O-Me-cAMP activation of Rap1 (Rap1 [2])
8-bromo-2′-deoxyadenosine-3′,5′-cyclic monophosphate [Compound I-002] | 0.12 | 0.01 | + | 0.00001 | – | – | – | –
8-isopropylthio-2′-O-methyladenosine-3′,5′-cyclic monophosphate [Compound I-113] | 0.7 | 0.028 | + | 0.0004 | – | – | – | –
8-methylamino-2′-O-methyladenosine-3′,5′-cyclic monophosphate [Compound I-100] | <0.5 | 0.0014 | ± | 0.0001 | – | – | – | –
8-methylthio-2′-O-methyladenosine-3′,5′-cyclic monophosphate [Compound I-101] | 1.3 | 0.012 | + | 0.0006 | – | – | – | –
8-n-hexylthio-2′-O-methyladenosine-3′,5′-cyclic monophosphate [Compound I-109] | 1.2 | 0.03 | ++ | 0.0008 | – | – | – | –
8-phenylthio-2′-O-methyladenosine-3′,5′-cyclic monophosphate [Compound I-105] | 3.6 | 0.02 | ++ | 0.0005 | – | – | – | –
Nc1ncnc2c1nc(Br)n2[C@@H]1O[C@@H]2COP(=O)(O)O[C@H]2[C@H]1O [Compound 8-Br-cAMP, 8-Br-cAMP, reference compound] | – | – | – | – | induced both the activation of Rap1 and the phosphorylation of CREB | induced both the activation of Rap1 | – | –
O=S(=O)(NCCNC/C=C/c1ccc(Br)cc1)c1cccc2cnccc12 [Compound H-89, H-89, reference compound] | – | – | – | – | – | – | insensitive | insensitive
